From US4482560A, “Carbostyril derivatives, and antihistaminic agents containing the same” (priority 1979, dated 1984)

Key:
ileum of a guinea pig = ileum of a guinea pig (Cavia porcellus, UniProt P31389); assay: cell-based; conditions: histamine-induced retraction of guinea pig ileum, test compound 10^-6 g/ml, 36° C., Van Rossam method; for Kb: read-out: pA2 (converted)
Protocol: Pharmacological tests of the present compounds were conducted according to said method as follows:
A male guinea pig having 300 to 500 g body weight is killed by blood letting. An ileum having length of 15 cm being enucleated from the ileocecal region is dipped into Tyrode's solution (which is prepared from 8.0 g of NaCl, 0.2 g of KCl, 0.2 g of CaCl2, 1.0 g of glucose, 1.0 g of NaHCO3, 0.065 g of NaHPO4.2H2 O and 0.2135 g of MgCl2.6H2 O to make 1000 ml in total volume by adding water). Then the tissue of ileum is cut to a length of 2.5 to 3.0 cm and suspended in an organ bath filled with 30 ml of Tyrode's solution. The organ bath is kept a temperature of 36° C. while blowing a mixed gas consisting of 5% of CO2 and 95% of O2 into the bath. 10 Minutes after the blowing, 10^-6 M of histamine is added to the bath to examine the sensitivity of the tissue and a reaction curve (control) with respect to the dosage of histamine is obtained. After the dosage of histamine-reaction curve (control) become constant 10^-6 g/ml of a compound to be tested is added to the bath and further histamine is added 5 minutes later to obtain dosage-reaction curve. Retraction of the ileum is recorded on a pen-recorder through an isotonic transducer (TD-112S manufactured by Nihon Koden).

Acute toxicity test = conditions: rat, in vivo; oral, male rats
Excerpt: Each of the compounds of the present invention was orally administered to male rats to determine the acute toxicity.

Male mice of ddy-strain = assay: Halothane anesthesia increasing activity; format: in vivo, mouse; conditions: oral, 32 mg/kg, 1 hour before 4% Halothane for 3 minutes, male ddy mice; saline control 4.2
Protocol: Male mice of ddy-strain having about 20 g body weight were used. One test group consists of 10 mice. An aqueous Gummi Arabicum suspension of test compound (80 mg of a compound to be tested and 1 g of Gummi Arabicum/100 ml of physiological NaCl solution) was administered orally to each mouse at the dosage of 32 mg of test compound/kg body. One hour after the administration, each mouse was placed in gas respiration chamber (13×13×24 cm) and oxygen gas containing 4% of Halothane [2-bromo-2-chloro-1,1,1-trifluoroethane] was blown into the chamber at the velocity of 2 l/min for 3 minutes. A mouse anaesthetized was taken out from the chamber and the time between the introduction of anesthesia to waking was measured by righting reflex as the index. To mice of control group, 1% Gummi Arabicum aqueous physiological solution was orally administered at the dosage of 0.1 ml/kg body. (Reference: M. J. Turnbull and J. W. Watkins: Br. J. Pharmacol., 58, 27-35 (1976))

[1] = tested on: conjunctiva of the animal; assay: Local anesthesia activity test; format: in vivo, guinea pig; conditions: 0.1% solution, 3 drops on conjunctiva, 60 stimulations in 30 minutes, four guinea pigs; saline control 0
Protocol: Guinea pig having about 300 to 350 g of body weight were used as the test animals. Three (3) drops of 0.1%-test compound dissolved in physiological saline solution were administered through 1/4-sized injection needle on the surface of conjuctiva of the test animal. After the administration of the test solution, the conjunctiva of the animal was stimulated ten times in every 5 minutes by a stylet (mandrine) or 1/4-sized injection needle, the stimulations were repeated 6 times within 30 minutes, thus 60 stimulations were given to the conjunctiva of the animal. The number of disappearing of eye-closing-reflexes, during 30 minutes after the administration of the test solution was counted as to the effectiveness of the local anesthesia activity. In this test, four (4) guinea pigs were used as one test group, and the test solution containing 0.1% of the test compound was applied to one test group, and physiological saline solution was, on the other hand, applied to another test group of the guinea pigs as the control.

Sequence of ileum of a guinea pig (P31389 whole entry): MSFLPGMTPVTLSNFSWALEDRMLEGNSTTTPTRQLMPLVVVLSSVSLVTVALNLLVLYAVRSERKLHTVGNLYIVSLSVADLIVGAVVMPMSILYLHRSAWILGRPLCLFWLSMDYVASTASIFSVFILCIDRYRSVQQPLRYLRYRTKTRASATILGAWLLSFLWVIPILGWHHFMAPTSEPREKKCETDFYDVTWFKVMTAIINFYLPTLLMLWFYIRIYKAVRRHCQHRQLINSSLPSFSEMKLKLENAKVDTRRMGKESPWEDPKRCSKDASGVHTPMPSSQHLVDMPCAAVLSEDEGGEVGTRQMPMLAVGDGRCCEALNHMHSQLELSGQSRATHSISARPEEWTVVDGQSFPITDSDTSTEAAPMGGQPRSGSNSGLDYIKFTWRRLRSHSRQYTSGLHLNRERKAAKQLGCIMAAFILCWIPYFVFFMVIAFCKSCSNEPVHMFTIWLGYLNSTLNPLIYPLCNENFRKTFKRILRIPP

Row | Structure (SMILES) | Kb (ileum of a guinea pig) [nM] | LD50 (Acute toxicity test) [mg/kg] | Time (minutes) between introduction of anesthesia and waking (righting reflex) (Male mice of ddy-strain) [min] | Number of eye-closing reflex (number of disappearing of eye-closing-reflexes during 30 minutes) [1] | pA2 (ileum of a guinea pig)
1 | CN1C(=O)CCc2c(OCC(O)CN3CCC(Cc4ccccc4)CC3)cccc21.O=C(O)C(=O)O (stereo not shown) [Compound 10, 1-Methyl-5-[2-hydroxy-3-(4-benzyl-1-piperidyl)-propoxy]-3,4-dihydrocarbostyril monooxalate] | 0.24 | > 1000 | 4.8 | 37.3 | 
2 | O=C1CCc2ccc(OCC(O)CN3CCC(c4ccccc4)CC3)cc2N1 (stereo not shown) [Compound 9, 7-[2-Hydroxy-3-(4-phenyl-1-piperidyl)propoxy]-3,4-dihydrocarbostyril] | 0.129 | > 1000 | 4.1 | 29.2 | 
3 | C[N+]1(CC(O)COc2cccc3c2CCC(=O)N3)CCC(c2ccccc2)CC1 (stereo not shown) [Compound 11, 4-Phenyl-1-[2-hydroxy-3-(2-oxo-1,2,3,4-tetra-hydroquinolin-5-yloxy)propyl]-1-methyl-piperidium iodide] | 5.89 | > 1000 | 5.2 | 27.6 | 
4 | O=C1CCc2c(cccc2OCCCN2CCC(Cc3ccccc3)CC2)N1 [Compound 1, 5-[3-(4-Benzyl-1-piperidyl)propoxy]-3,4-dihydrocarbostyril] | 0.302 | > 1000 | 4.7 | 55.1 | 
5 | Cc1cc(=O)n(C)c2ccc(OCCCN3CCN(Cc4ccc(Cl)cc4)CC3)cc12 [D, reference compound] |  |  |  | 3.8 | 
6 | Cc1cc(=O)[nH]c2cc(OCCCN3CCN(Cc4ccccc4)CC3)ccc12 [E, 4-Methyl-7-[3-(4-benzyl-piperazin-1-yl)-propoxy]-2-oxo-1,2-dihydroquinoline, reference compound] |  |  |  | 5.2 | 
7 | Cc1cc(=O)n(C)c2cc(OCCCN3CCN(Cc4ccc(Cl)cc4)CC3)ccc12 [C, 1,4-Dimethyl-7-{3-[4-(4-chlorobenzyl)-1-piperazin-1-yl]propoxy}-2-oxo-1,2-dihydroquinoline, reference compound] |  |  |  | 2.8 | 
8 | CC(=O)C1(c2ccccc2)CCN(CCCOc2ccc3c(c2)NC(=O)CC3)CC1 [Compound 15, 7-{3-[4-(4-Acetyl-4-phenyl)-1-piperidyl]}-3,4-dihydrocarbostyril] |  | > 1000 | 4.7 | 35.5 | 9.92
9 | CN1C(=O)CCc2ccc(OCCCN3CCC(Cc4ccccc4)CC3)cc21.O=C(O)C(=O)O [Compound 2, 1-Methyl-7-[3-(4-benzyl-1-piperidyl)propoxy]-3,4-dihydrocarbostyril monooxalate] | 0.02 | > 1000 | 4.9 | 58.0 | 
10 | O=c1cc(-c2ccccc2)c2ccc(OCCCN3CCC(c4ccccc4)CC3)cc2[nH]1 [Compound 13, 4-Phenyl-7-[3-(4-phenyl-1-piperidyl)propoxy]-carbostyril monohydrochoride] | 0.186 | > 1000 | 5.6 | 28.0 | 
